How the values were obtained:
corn = assay: Test A preemergence; assay type: in vivo, Zea mays; conditions: Zea mays, pre-emergence, 240 h, 0 to 100 scale (0 no effect, 100 complete control); for Corn plant response rating (crop injury, 0 = no effect, 100 = complete kill) at 125 g/ha: 125 g ai/ha; for Corn plant response rating (crop injury, 0 = no effect, 100 = complete kill) at 500 g/ha: 500 g ai/ha, approx. 10 d
Summary of the method: (§1)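 Test chemicals, formulated in a surfactant-containing non-phytotoxic solvent mixture, are applied either as a directed soil spray to newly planted seeds or as a postemergence application to plants at the one- to two-leaf stage (2–10 cm). All plants grow in a loam soil and sand blend.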

crabgrass, large [1] = assay: Test A preemergence; assay type: in vivo, Digitaria sanguinalis; conditions: Digitaria sanguinalis, pre-emergence, 240 h, 0 to 100 scale (0 no effect, 100 complete control), read-out: Plant response rating, Crabgrass, Large; for pest or weed control at 125 g/ha: 125 g ai/ha; for pest or weed control at 500 g/ha: 500 g ai/ha, approx. 10 d
Summary of the method: as §1

crabgrass, large [2] = assay: Test C preemergence; assay type: in vivo, Digitaria sanguinalis; conditions: for Plant response rating (scale of 0 to 100 where 0 is no effect and 100 is complete control): Crabgrass, Large, preemergence; for Crabgrass, Large plant response rating (0 to 100): Preemergence, visual rating after 13 to 15 d
Excerpt: (§2) Seeds of plant species selected from blackgrass (Alopecurus myosuroides), ryegrass, Italian (Italian ryegrass, Lolium multiflorum), wheat (winter wheat, Triticum aestivum), galium (catchweed bedstraw, Galium aparine), corn (Zea mays), crabgrass, large (large crabgrass, Digitaria sanguinalis), foxtail, giant, (giant foxtail, Setaria faberii), johnsongrass (Sorghum halepense), lambsquarters (Chenopodium album), morningglory (Ipomoea coccinea), nutsedge, yellow (yellow nutsedge, Cyperus esculentus), pigweed (Amaranthus retroflexus), ragweed (common ragweed, Ambrosia elatior), soybean (Glycine max), barnyardgrass (Echinochloa crus-galli), oilseed rape (Brassica napus), waterhemp (common waterhemp, Amaranthus rudis), and velvetleaf (Abutilon theophrasti) were planted into a blend of loam soil and sand and treated preemergence with test chemicals formulated in a non-phytotoxic solvent mixture which included a surfactant. At the same time, plants selected from these crop and weed species and also chickweed (common chickweed, Stellaria media), oat, wild (wild oat, Avena fatua), and kochia (Kochia scoparia), were planted in pots containing Sunshine Redi-Earth® planting medium comprising spaghnum peat moss, vermiculite, starter nutrients and dolomitic limestone and treated with postemergence applications of test chemicals formulated in the same manner. Plants ranged in height from 2 to 18 cm (1- to 4-leaf stage) for postemergence treatments. […] A dash (-) response means no test result.

kochia = assay: Test A preemergence; assay type: in vivo, Kochia scoparia; conditions: 0 to 100 scale (0 no effect, 100 complete control)
Excerpt: Seeds of plant species selected from barnyardgrass (Echinochloa crus-galli), crabgrass, large (large crabgrass, Digitaria sanguinalis), kochia (Kochia scoparia), ragweed (common ragweed, Ambrosia elatior), foxtail, giant (giant foxtail, Setaria faberii), morningglory (Ipomoea spp.), pigweed (Amaranthus retroflexus), velvetleaf (Abutilon theophrasti), ryegrass, Italian (Italian ryegrass, Lolium multiflorum), wheat (Triticum aestivum), and corn (Zea mays) were planted into a blend of loam soil and sand and treated preemergence with a directed soil spray using test chemicals formulated in a non-phytotoxic solvent mixture which included a surfactant.
At the same time, plants selected from these crop and weed species and also blackgrass (Alopecurus myosuroides), and galium (catchweed bedstraw, Galium aparine), were planted in pots containing the same blend of loam soil and sand and treated with postemergence applications of test chemicals formulated in the same manner. Plants ranged in height from 2 to 10 cm and were in the one- to two-leaf stage for the postemergence treatment. Treated plants and untreated controls were maintained in a greenhouse for approximately 10 d, after which time all treated plants were compared to untreated controls and visually evaluated for injury. Plant response ratings, summarized in Table A, are based on a 0 to 100 scale where 0 is no effect and 100 is complete control. A dash (-) response means no test result.

soybean = assay: Test C preemergence; assay type: in vivo, Glycine max; conditions: for Soybean plant response rating (0 to 100): Preemergence, visual rating after 13 to 15 d
Excerpt: as §2

radish, wild = assay: Test D preemergence; assay type: in vivo, Raphanus raphanistrum; conditions: scale 0 to 100
Excerpt: (§3) Seeds of plant species selected from bluegrass (annual bluegrass, Poa annua), blackgrass (Alopecurus myosuroides), canarygrass (Phalaris minor), chickweed (common chickweed, Stellaria media), galium (catchweed bedstraw, Galium aparine), bromegrass, down (downy bromegrass, Bromus tectorum), Russian thistle (Salsola kali), field poppy (Papaver rhoeas), field violet (Viola arvensis), foxtail, green (green foxtail, Setaria viridis), deadnettle (henbit deadnettle, Lamium amplexicaule), ryegrass, Ital. (Italian ryegrass, Lolium multiflorum), kochia (Kochia scoparia), lambsquarters (Chenopodium album), oilseed rape (Brassica napus), pigweed (Amaranthus retroflexus), chamomile (scentless chamomile, Matricaria inodora), speedwell (bird's-eye speedwell, Veronica persica), barley, spring (spring barley, Hordeum vulgare), wheat, spring (spring wheat, Triticum aestivum), buckwheat, wild (wild buckwheat, Polygonum convolvulus), wild mustard (Sinapis arvensis), oat, wild (wild oat, Avena fatua), radish, wild (wild radish, Raphanus raphanistrum), […]), barley, winter (winter barley, Hordeum vulgare), and wheat, winter (winter wheat, Triticum aestivum) were planted into a silt loam soil and treated preemergence with test chemicals formulated in a non-phytotoxic solvent mixture which included a surfactant. At the same time, these species were planted in pots containing Sunshine Redi-Earth® planting medium comprising spaghnum peat moss, vermiculite, starter nutrients and dolomitic limestone and treated with postemergence applications of the test chemicals formulated in the same manner. Plants ranged in height from 2 to 18 cm (1- to 4-leaf stage). Treated plants and controls were maintained in a controlled growth environment for 14 to 21 d after which time all species were compared to controls and visually evaluated. […] A dash (-) response means no test result.

field poppy = assay: Test D postemergence; assay type: in vivo, Papaver rhoeas; conditions: scale 0 to 100
Excerpt: as §3

field violet = assay: Test D postemergence; assay type: in vivo, Viola arvensis; conditions: scale 0 to 100
Excerpt: as §3

buckwheat, wild = assay: Test D preemergence; assay type: in vivo, Polygonum convolvulus; conditions: for Plant response rating: Buckwheat, Wild: scale 0 to 100
Excerpt: as §3

CCn1nc(-c2ccc(F)cc2)nc1C(O)c1ccnc(C(F)(F)F)c1 (stereo not drawn) [Compound 15, α-[1-Ethyl-3-(4-fluorophenyl)-1H-1,2,4-triazol-5-yl]-2-(trifluoromethyl)-4-pyridinemethanol]
Corn plant response rating (crop injury, 0 = no effect, 100 = complete kill) at 125 g/ha (corn): 0% | Corn plant response rating (crop injury, 0 = no effect, 100 = complete kill) at 500 g/ha (corn): 0% | pest or weed control at 125 g/ha (crabgrass, large [1]): 10% | pest or weed control at 500 g/ha (crabgrass, large [1]): 30%

COc1nc(-c2ccccc2)nn1Cc1ccnc(C(F)(F)F)c1 [Compound 32]
Plant response rating (scale of 0 to 100 where 0 is no effect and 100 is complete control) (crabgrass, large [2]; 125 g ai/ha): 100 | Plant response rating (scale of 0 to 100 where 0 is no effect and 100 is complete control) (crabgrass, large [2]; 250 g ai/ha): 98 | Crabgrass, Large plant response rating (0 to 100) (crabgrass, large [2]; 31 g ai/ha): 65 | Crabgrass, Large plant response rating (0 to 100) (crabgrass, large [2]; 62 g ai/ha): 90 | Plant response rating, Kochia (kochia; 125 g ai/ha): 100 | Plant response rating, Kochia (kochia; 500 g ai/ha, approx. 10 d): 100 | Soybean plant response rating (0 to 100) (soybean; 31 g ai/ha): 0 | Soybean plant response rating (0 to 100) (soybean; 62 g ai/ha): 0 | Plant response rating (scale of 0 to 100 where 0 is no effect and 100 is complete control) (soybean; Soybean, preemergence, 250 g ai/ha): 5

Cn1nc(-c2ccc(F)cc2)nc1Oc1cccc(C(F)(F)F)c1 [Compound 5, 3-(4-fluorophenyl)-1-methyl-5-[3-(trifluoromethyl)phenoxy]-1H-1,2,4-triazole]
Corn plant response rating (crop injury, 0 = no effect, 100 = complete kill) at 125 g/ha (corn): 0% | Corn plant response rating (crop injury, 0 = no effect, 100 = complete kill) at 500 g/ha (corn): 0% | pest or weed control at 125 g/ha (crabgrass, large [1]): 70% | pest or weed control at 500 g/ha (crabgrass, large [1]): 100%

CCCn1nc(-c2ccc(F)cc2)nc1Cc1ccnc(C(F)(F)F)c1 [Compound 17, 4-[[3-(4-fluorophenyl)-1-propyl-1H-1,2,4-triazol-5-yl]methyl]-2-(trifluoromethyl)pyridine]
Corn plant response rating (crop injury, 0 = no effect, 100 = complete kill) at 125 g/ha (corn): 30% | Corn plant response rating (crop injury, 0 = no effect, 100 = complete kill) at 500 g/ha (corn): 40% | pest or weed control at 125 g/ha (crabgrass, large [1]): 100% | pest or weed control at 500 g/ha (crabgrass, large [1]): 100%

Cn1nc(-c2ccc(F)cc2)nc1C(O)c1ccnc(C(F)(F)F)c1 (stereo not drawn) [Compound 14, α-[3-(4-fluorophenyl)-1-methyl-1H-1,2,4-triazol-5-yl]-2-(trifluoromethyl)-4-pyridinemethanol]
Corn plant response rating (crop injury, 0 = no effect, 100 = complete kill) at 125 g/ha (corn): 0% | Corn plant response rating (crop injury, 0 = no effect, 100 = complete kill) at 500 g/ha (corn): 0% | pest or weed control at 125 g/ha (crabgrass, large [1]): 60% | pest or weed control at 500 g/ha (crabgrass, large [1]): 100%

COc1nc(-c2ccc(Cl)cc2)nn1Cc1ccnc(C(F)(F)F)c1 [Compound 28]
Plant response rating: Radish, Wild (radish, wild; 62 g ai/ha): 60 | Plant response rating: Radish, Wild (radish, wild; 125 g ai/ha): 80 | Plant response rating: Field Poppy (field poppy; 16 g ai/ha): 65 | Plant response rating: Field Poppy (field poppy; 31 g ai/ha): 65 | Plant response rating: Field Poppy (field poppy; 62 g ai/ha): 65 | Plant response rating: Field Poppy (field poppy; 125 g ai/ha): 70 | Plant response rating, Kochia (kochia; 125 g ai/ha): 70 | Plant response rating, Kochia (kochia; 500 g ai/ha, approx. 10 d): 90 | Plant response rating: Field Violet (field violet; 16 g ai/ha): 75 | Plant response rating: Field Violet (field violet; 31 g ai/ha): 80 | Plant response rating: Field Violet (field violet; 62 g ai/ha): 100 | Plant response rating: Field Violet (field violet; 125 g ai/ha): 100 | Plant response rating (0 to 100), Buckwheat, Wild (buckwheat, wild; 16 g ai/ha, 0 is no effect, 100 is complete control): 60 | Plant response rating: Buckwheat, Wild (buckwheat, wild; 31 g ai/ha): 65 | Plant response rating: Buckwheat, Wild (buckwheat, wild; 62 g ai/ha): 75 | Plant response rating: Buckwheat, Wild (buckwheat, wild; 125 g ai/ha): 95

CS(=O)(=O)c1nc(-c2ccc(F)cc2)nn1Cc1ccnc(C(F)(F)F)c1 [Compound 29, 4-[[3-(4-fluorophenyl)-5-(methylsulfonyl)-1H-1,2,4-triazole-1-yl]methyl]-2-(trifluoromethyl)pyridine]
Corn plant response rating (crop injury, 0 = no effect, 100 = complete kill) at 125 g/ha (corn): 0% | Corn plant response rating (crop injury, 0 = no effect, 100 = complete kill) at 500 g/ha (corn): 0% | pest or weed control at 125 g/ha (crabgrass, large [1]): 0% | pest or weed control at 500 g/ha (crabgrass, large [1]): 0%

Source: patent US10681909B2, “Herbicidal triazoles” (FMC Corporation, priority 2014, dated 2020)
